The results in this text go back to patent US11547681B2, “N-acylethanolamide derivatives and uses thereof” (ELIEM THERAPEUTICS, INC., priority 2016, dated 2023).

The structures appear in SMILES notation. Some results are limits rather than exact numbers.

The nature of data set [1]: Plasma stability (37° C., pH 7.4), rat. In kind it is in vitro ADME, Sprague-Dawley rat. The conditions noted are these: for half-life at 1 μM: male, Sprague-Dawley, rat, plasma, read-out: Half-life; for % Remaining of Initial (n = 1), 0 min / % Remaining of Initial (n = 1), 15 min / % Remaining of Initial (n = 1), 30 min / % Remaining of Initial (n = 1), 60 min / % Remaining of Initial (n = 1), 120 min: rat plasma; for % Remaining of Initial (n = 1), 0 min: pH 7.4, 0 min; for % Remaining of Initial (n = 1), 15 min: pH 7.4, 15 min; for % Remaining of Initial (n = 1), 30 min: pH 7.4, 30 min; for % Remaining of Initial (n = 1), 60 min: pH 7.4, 60 min; for % Remaining of Initial (n = 1), 120 min: pH 7.4, 120 min; for % Remaining of Initial (n = 1): Rat plasma. Here is the method:
(§1) Studies were carried out in mixed-gender human plasma (Lot #GLP530-5), male Sprague-Dawley rat (Lot #RAT297944, RAT313140), male CD-1 mouse (Lot #MSE237700), and male Beagle dog (Lot #BGL87670, BGL82614), collected on sodium heparin. Plasma was adjusted to pH 7.4 prior to initiating the experiments. DMSO stocks were first prepared for the test articles. Aliquots of the DMSO solutions were dosed into 700 μL of plasma, which had been pre-warmed to 37° C., at a final test article concentration of 1 μM. […] Samples were stored at 4° C. until the end of the experiment. After the final time point was sampled, the plate was mixed and then centrifuged at 3,000 rpm for 10 minutes. Calibration standards were prepared in matched matrix. […] Analytical conditions are outlined in Appendix 8-1.
as §1, with “#AS1650-2),” for “#GLP530-5),”, “#RAT297944),” for “#RAT297944, RAT313140),”, “CD-I” for “CD-1”, “#BGL91384),” for “#BGL87670, BGL82614),”, “10-1.” for “8-1.”
Studies were carried out in mixed-gender human plasma (Lot #AS1650-2), male Sprague-Dawley rat (Lot #RAT297944), male CD-1 mouse (Lot #MSE237700), and male Beagle dog (Lot #BGL91384), collected on sodium heparin. Plasma was adjusted to pH 7.4 prior to initiating the experiments. DMSO stocks were first prepared for test articles. […] Samples were stored at 4° C. until the end of experiment. After the final time point was sampled, the plate was mixed and then centrifuged at 3,000 rpm for 10 minutes. Calibration standards were prepared in matched matrix. […] Analytical conditions are outlined in Appendix 13-1.
Studies were carried out in mixed-gender human plasma (Lot #AS 1650-2), male Sprague-Dawley rat (Lot #RAT320835), male CD-1 mouse (Lot #MSE260693), and 6 male Beagle dog (Lot #BGL91384), on sodium heparin. Plasma was adjusted to pH 7.4 prior to initiating the experiments. DMSO stocks were first prepared for the test articles. Aliquots of the DMSO solutions were dosed into 700 μL of plasma, which had been pre-warmed to 37° C., at a final test article concentration of 1 μM. […] Samples were stored at 4° C. until the end of the experiment. After the final time point was sampled, the plate was mixed and then centrifuged at 3,000 rpm for 10 minutes. Calibration standards were prepared in matched matrix. […] Analytical conditions are outlined in Appendix 17-1.

The next data set can be described thus: in vitro. Particulars: male, Beagle, dog; for Concentration (μM) of analyte PEA, 0 min / Concentration (μM) of analyte PEA, 10 min / Concentration (μM) of analyte PEA, 20 min / Concentration (μM) of analyte PEA, 30 min / Concentration (μM) of analyte PEA, 60 min / % Remaining of Initial (n = 1), 0 min / % Remaining of Initial (n = 1), 10 min / % Remaining of Initial (n = 1), 20 min / % Remaining of Initial (n = 1), 30 min / % Remaining of Initial (n = 1), 60 min / Concentration, analyte PEA / % Remaining of Initial (n = 1): 1 μM. A digest of the protocol: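 Percent remaining against time 0 was fitted to a single-phase exponential decay to give half-lives. LC-MS/MS (ESI) followed both the dosed prodrug and PEA. Aliquots were taken at 0–60 min from a 37° C incubation of 1 μM (final) compound in intestinal S9 after cofactor addition.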

Setting [2] is: pH 7.4, rat plasma, test article 1 μM, 37° C., pH 7.4.

As to `CCCCCCCCCCCCCCCC(=O)NCCOC(=O)CCC(=O)OCC(O)CO` (centres unmarked) [Compound I-9], in data set [1] (setting [2]), the half-life at 1 μM came out at 2.8 min. Also, in data set [1] (test article 1 μM, 37° C.), the “% Remaining of Initial (n = 1), 0 min” value was found to be 100%; the “% Remaining of Initial (n = 1), 15 min” value came to 2.5%; the “% Remaining of Initial (n = 1), 30 min” value is recorded as less than 1.0%; the “% Remaining of Initial (n = 1), 60 min” value was less than 1.0%. Also, in data set [1] (test article 1 μM, 37° C.), the “% Remaining of Initial (n = 1), 120 min” value is given as less than 1.0%. Further, in “in vitro” (0 min), the “Concentration (μM) of analyte PEA, 0 min” value amounted to 0.26 µM. Also, the “Concentration (μM) of analyte PEA, 10 min” value in the data set “in vitro” (10 min) was 0.48 µM. Further, the “Concentration (μM) of analyte PEA, 20 min” value in “in vitro” (20 min) was 0.47 µM. In addition, in the data set “in vitro” (30 min), the “Concentration (μM) of analyte PEA, 30 min” value is 0.46 µM. Further, the “Concentration (μM) of analyte PEA, 60 min” value in the data set “in vitro” (60 min) is 0.45 µM. The “% Remaining of Initial (n = 1), 0 min” value in the data set “in vitro” (s9, 0 h) worked out at 100%. Besides, in “in vitro” (s9, 10 min), the “% Remaining of Initial (n = 1), 10 min” value was less than 1.0%. In the data set “in vitro” (s9, 20 min), the “% Remaining of Initial (n = 1), 20 min” value is listed as less than 1.0%. Also, the “% Remaining of Initial (n = 1), 30 min” value in “in vitro” (s9, 0.5 h) is less than 1.0%. In addition, the “% Remaining of Initial (n = 1), 60 min” value in “in vitro” (s9, 1 h) is less than 1.0%. In “in vitro” (s9, CLint (mL/min/mg protein)), the microsomal CLint at 1 μM is more than 691 µL/min/mg. For the same compound, the half-life at 1 μM in the data set “in vitro” (s9, Half-life (min)) is less than 1 min.

For the compound `CCCCCCCCCCCCCCCC(=O)NCCOC(=O)CCC(=O)OCC(COC(=O)CCC)OC(=O)CCC` (centres unmarked) [Compound I-11], in data set [1] (setting [2]), the half-life at 1 μM was 5.6 min. For the same compound, in data set [1] (test article 1 μM, 37° C.), the “% Remaining of Initial (n = 1), 0 min” value came out at 100%; the “% Remaining of Initial (n = 1), 15 min” value came to 9.0%; the “% Remaining of Initial (n = 1), 30 min” value came out at 23%; the “% Remaining of Initial (n = 1), 60 min” value is on record as less than 1.0%. Also, the “% Remaining of Initial (n = 1), 120 min” value in data set [1] (test article 1 μM, 37° C.) is less than 1.0%. Besides, the “Concentration (μM) of analyte PEA, 0 min” value in the data set “in vitro” (0 min) was found to be 0.032 µM. Further, the “Concentration (μM) of analyte PEA, 10 min” value in the data set “in vitro” (10 min) was 0.23 µM. For the same compound, the “Concentration (μM) of analyte PEA, 20 min” value in the data set “in vitro” (20 min) was determined as 0.38 µM. In addition, the “Concentration (μM) of analyte PEA, 30 min” value in “in vitro” (30 min) was determined as 0.74 µM. The “Concentration (μM) of analyte PEA, 60 min” value in the data set “in vitro” (60 min) is 0.88 µM. Besides, the “% Remaining of Initial (n = 1), 0 min” value in “in vitro” (s9, 0 h) is recorded as 100%. In “in vitro” (s9, 10 min), the “% Remaining of Initial (n = 1), 10 min” value was 1.8%. In the data set “in vitro” (s9, 20 min), the “% Remaining of Initial (n = 1), 20 min” value is listed as less than 1.0%. Further, in “in vitro” (s9, 0.5 h), the “% Remaining of Initial (n = 1), 30 min” value was less than 1.0%. Besides, the “% Remaining of Initial (n = 1), 60 min” value in the data set “in vitro” (s9, 1 h) is reported as less than 1.0%.

With `CCCCC/C=C\C/C=C\CCCCCCCC(=O)OCC(COC(=O)CCC(=O)OCCNC(=O)CCCCCCCCCCCCCCC)OC(=O)CCCCCCC/C=C\C/C=C\CCCCC` (centres unmarked) [Compound I-13], the “% Remaining of Initial (n = 1)” value in data set [1] (0 min, 1 μM) is given as 100%; in data set [1] (15 min, 1 μM) it was 69%; in data set [1] (30 min, 1 μM) it was 76%; in data set [1] (60 min, 1 μM), 36%; in data set [1] (120 min, 1 μM), 5.1%; in “in vitro” (s9, 0 h) it was 100%. Moreover, the “% Remaining of Initial (n = 1)” value amounted to 67% in the data set “in vitro” (s9, 10 min); 63% in the data set “in vitro” (s9, 20 min); 46% in the data set “in vitro” (s9, 0.5 h); 49% in “in vitro” (s9, 1 h). Further, the half-life at 1 μM in data set [1] (pH 7.4, Rat plasma, 1 μM) is 42 min. Further, the “Concentration, analyte PEA” value was determined as 58 nM in the data set “in vitro” (0 min); 95 nM in “in vitro” (10 min); 100 nM in “in vitro” (20 min); 89 nM in “in vitro” (30 min); 170 nM in “in vitro” (60 min).

Usually half-life stands for how long it takes for the measured level to halve. What is called microsomal CLint is the capacity of the preparation to metabolise the compound, expressed as a volume cleared per time. Lower therefore signals greater metabolic stability.
